Source: the NIST ThermoML archive (doi:10.1016/j.jct.2018.02.010)
± gives the expanded uncertainty stated by the source.

Tests used:
[1] = 298.15 K; for surface tension liquid-gas: Maximal bubble pressure; for mass density: 101.33 kPa, Liquid, Vibrating tube method
[2] = refractive index (Na D-line) (dimensionless); settings: 298.15 K; 101.33 kPa; Liquid; refractometer model RFM 81
[3] = 101.3 kPa, Liquid mixture 1, spinning drop method

| SMILES | surface tension liquid-gas [1] [mN/m] | mass density [1] [kg/m3] | refractive index [2] | interfacial tension ([3]; 278.15 K) [mN/m] | interfacial tension ([3]; 288.15 K) [mN/m] | interfacial tension ([3]; 298.15 K) [mN/m] | interfacial tension ([3]; 308.15 K) [mN/m] | interfacial tension ([3]; 318.15 K) [mN/m] | interfacial tension ([3]; 328.15 K) [mN/m] | interfacial tension ([3]; 338.15 K) [mN/m] | interfacial tension ([3]; 348.15 K) [mN/m] | interfacial tension ([3]; 358.15 K) [mN/m] |
| --- | --- | --- | --- | --- | --- | --- | --- | --- | --- | --- | --- | --- |
| COC=O [methyl methanoate] | 24.96 ± 0.25 | 960.85 ± 0.3 | 1.34174 ± 0.0008 |  |  |  |  |  |  |  |  |  |
| CCC(=O)OC [methyl propanoate] | 24.61 ± 0.25 | 909.3 ± 0.72 | 1.37572 ± 0.0008 |  |  |  |  |  |  |  |  |  |
| CCCC(=O)OC [methyl butanoate] + O |  |  |  | 10.6 ± 0.03 | 10.9 ± 0.03 | 11.1 ± 0.03 | 11.1 ± 0.03 | 11 ± 0.03 | 10.6 ± 0.03 | 10.05 ± 0.03 | 9.4 ± 0.03 |  |
| CCCCC(=O)OC [methyl pentanoate] | 25.34 ± 0.25 | 885.66 ± 0.72 | 1.39628 ± 0.0008 |  |  |  |  |  |  |  |  |  |
| COC=O [methyl methanoate] + O |  |  |  | 0.56 ± 0.03 | 0.77 ± 0.03 |  |  |  |  |  |  |  |
| CCCCCCC(=O)OC [methyl heptanoate] + O |  |  |  |  | 16 ± 0.03 | 16.7 ± 0.03 | 17.3 ± 0.04 | 17.5 ± 0.04 | 17.6 ± 0.04 | 17.5 ± 0.04 | 16.9 ± 0.03 | 15.9 ± 0.03 |
| CCCCCC(=O)OC [methyl hexanoate] | 26.01 ± 0.26 | 879.76 ± 0.72 | 1.40443 ± 0.0008 |  |  |  |  |  |  |  |  |  |
| CCCC(=O)OC [methyl butanoate] | 24.56 ± 0.25 | 892.62 ± 0.72 | 1.38486 ± 0.0008 |  |  |  |  |  |  |  |  |  |
| COC(C)=O [methyl ethanoate] + O |  |  |  | 1.86 ± 0.03 | 1.77 ± 0.03 | 1.66 ± 0.03 | 1.49 ± 0.03 | 1.17 ± 0.03 | 0.75 ± 0.03 |  |  |  |
| CCCCCC(=O)OC [methyl hexanoate] + O |  |  |  | 14.6 ± 0.03 | 15 ± 0.03 | 15.5 ± 0.03 | 15.7 ± 0.03 | 15.8 ± 0.03 | 15.7 ± 0.03 | 15.5 ± 0.03 | 15.1 ± 0.03 | 14.6 ± 0.03 |
| CCC(=O)OC [methyl propanoate] + O |  |  |  | 7.02 ± 0.03 | 7.55 ± 0.03 | 7.69 ± 0.03 | 7.56 ± 0.03 | 7.34 ± 0.03 | 6.63 ± 0.03 | 5.06 ± 0.03 |  |  |
| COC(C)=O [methyl ethanoate] | 24.93 ± 0.25 | 926.9 ± 0.72 | 1.36008 ± 0.0008 |  |  |  |  |  |  |  |  |  |
| CCCCCCC(=O)OC [methyl heptanoate] | 26.73 ± 0.26 | 875.61 ± 0.72 | 1.41086 ± 0.0008 |  |  |  |  |  |  |  |  |  |
| CCCCC(=O)OC [methyl pentanoate] + O |  |  |  | 13.6 ± 0.03 | 14 ± 0.03 | 14.1 ± 0.03 | 14 ± 0.03 | 13.9 ± 0.03 | 13.7 ± 0.03 | 13.5 ± 0.03 | 13.2 ± 0.03 | 12.9 ± 0.03 |
